Test results from paper PMC8949129, “Unique Phenanthrenes from Juncus ensifolius and Their Antiproliferative and Synergistic Effects with the Conventional Anticancer Agent Doxorubicin against Human Cancer Cell Lines” (Pharmaceutics, 2022).
Read-outs that look alike come from different tables or passages of the source.

Assays:
HeLa cells = test: Drug combination assay with doxorubicin (MTT, CompuSyn); assay type: cell-based, human; design: key to CI (combination index): CI <1 synergy, ~1 additivity, >1 antagonism; conditions: for Interaction: interaction type with doxorubicin; for CI (combination index): with doxorubicin, 72 h, average over drug ratios at IC50
Experimental: The HeLa cell line was used to perform this assay. Doxorubicin (2 mg/mL, Teva Pharmaceuticals, Budapest, Hungary) was serially diluted in the horizontal direction, starting with 8.6 µM. The resistance modifier was subsequently diluted in the vertical direction, and the starting concentration was determined based on the IC50. The dilutions of doxorubicin were made in a horizontal direction in 100 µL, and the dilutions of the resistance modifiers occurred vertically in the microtiter plate in a 50 µL volume. The compounds and doxorubicin were diluted separately. […] Then, diluted compounds with a volume of 50 μL were added to each well to reach a final volume of 200 μL. The plates were incubated for 72 h at 37 °C in a CO2 incubator, and at the end of the incubation period, the cell growth was determined by the MTT staining method, as described earlier. Drug interactions were evaluated using CompuSyn software. Each dose-response curve (for individual agents as well as combinations) was fit to a linear model using the median effect equation in order to obtain the median effect value (corresponding to the IC50) and slope (m). The goodness-of-fit was assessed using the linear correlation coefficient, r, and only data from analysis with r > 0.90 are presented. The extent of the interaction between drugs was expressed using the combination index in which a CI value close to 1 indicates additivity, while CI < 1 is defined as synergy and CI > 1 as antagonism.

[1] = tested on: COLO 320/MDR-LRP multidrug resistant colonic adenocarcinoma cells expressing P-gp; test: Antiproliferative MTT assay, COLO 320; conditions: for IC50: Homo sapiens, COLO 320, 72 h, read-out: IC50 (µM) ± SD COLO 320; for SI MRC-5/COLO 320: selectivity index: IC50 in non-tumour cells / IC50 in cancer cells
Experimental: (§1) The human colon adenocarcinoma cells (COLO 205 sensitive and the resistant COLO 320/MDR-LRP expressing P-gp), namely, ATCC-CCL-220.1 (COLO 320) and CCL-222 (COLO 205) were cultured in RPMI 1640 medium supplemented with 10% heat-inactivated fetal bovine serum, 2 mM L-glutamine, 1 mM Na pyruvate, and 100 mM HEPES. HeLa (ATCC® CCL-2™) human cervix carcinoma cells, and MRC-5 (ATCC® CCL-171) human embryonal lung fibroblast cells were cultured in Eagle’s minimal essential medium (EMEM, containing 4.5 g/L glucose) supplemented with a non-essential amino acid mixture, a selection of vitamins, and 10% heat-inactivated fetal bovine serum. The cell lines were detached with 0.25% trypsin and 0.02% EDTA for 5 min at 37 °C.
(§2) In the study, human colonic adenocarcinoma cell lines (doxorubicin-sensitive COLO 205 and multidrug resistant COLO 320 colonic adenocarcinoma cells), HeLa human cervix carcinoma cells and the MRC-5 non-cancerous human embryonic lung fibroblast cell line were used to determine the effect of the compounds on cell growth. The effects of increasing concentrations of compounds on cell growth were tested in 96-well flat-bottomed microtiter plates. […] The compounds were diluted in a volume of 100 μL of the medium. The adherent cells were cultured in 96-well flat-bottomed microtiter plates using EMEM supplemented with 10% heat-inactivated fetal bovine serum. The density of the cells was adjusted to 6 × 10^3 cells in 100 µL per well, the cells were seeded prior to the assay for 24 h at 37 °C, with 5% CO2, and then the medium was removed from the plates, and fresh medium (100 µL per well) was added to the cells. The effects of increasing concentrations of compounds on cell proliferation were tested in 96-well flat-bottomed microtiter plates. The compounds were diluted in the appropriate medium; the dilutions of compounds were performed in separate plates and then added to the cells. The starting concentration of the compounds was 100 µM, and two-fold serial dilution was performed (concentration range: 100–0.19 µM). The culture plates were incubated at 37 °C for 72 h; at the end of the incubation period, 20 µL of MTT (thiazolyl blue tetrazolium bromide, Sigma) solution (from a stock solution of 5 mg/mL) was added to each well. After incubation at 37 °C for 4 h, 100 µL of sodium dodecyl sulfate (SDS) (Sigma) solution (10% in 0.01 M HCI) was added to each well, and the plates were further incubated at 37 °C overnight. Cell growth was determined by measuring the optical density (OD) at 540/630 nm, with a Multiscan EX ELISA reader (Thermo Labsystems, Cheshire, WA, USA). Inhibition of cell growth (expressed as IC50: inhibitory concentration that reduces the growth of the cells exposed to the tested compounds by 50%) was determined from the sigmoid curve where 100 − ((ODsample − ODmedium control)/(ODcell control − ODmedium control)) × 100 was plotted against the logarithm of the compound concentrations. Curves were fitted by Prism5 software (GraphPad Software Inc., San Diego, CA, USA) from four parallel experiments for each cell line. Results are expressed in terms of IC50, defined as the inhibitory dose that reduces the proliferation of the cells exposed to the tested compounds by 50% [20].

[2] = tested on: HeLa human cervix carcinoma cells; test: Antiproliferative MTT assay, HeLa; assay type: cell-based; conditions: for IC50: Homo sapiens, HeLa, MTT, 72 h, four parallel measurements, read-out: IC50 (µM) ± SD HeLa; for SI MRC-5/HeLa: selectivity index: IC50 in non-tumour cells / IC50 in cancer cells
Experimental: as §1, §2

[3] = tested on: MRC-5 human embryonal lung fibroblast cells; test: Antiproliferative MTT assay, MRC-5 non-tumor cells; assay type: cell-based; conditions: Homo sapiens, MRC5, 72 h, four parallel measurements, read-out: IC50 (µM) ± SD MRC-5
Experimental: as §1, §2

[4] = tested on: HeLa, COLO 205, and COLO 320 cancer cells; test: Antiproliferative MTT assay, summary over the tested cell lines; assay type: cell-based; conditions: Homo sapiens, 72 h, COLO 205, COLO 320, read-out: IC50 values, range over the cancer cell lines
Experimental: as §1
In the study, human colonic adenocarcinoma cell lines (doxorubicin-sensitive COLO 205 and multidrug resistant COLO 320 colonic adenocarcinoma cells), HeLa human cervix carcinoma cells and the MRC-5 non-cancerous human embryonic lung fibroblast cell line were used to determine the effect of the compounds on cell growth. The effects of increasing concentrations of compounds on cell growth were tested in 96-well flat-bottomed microtiter plates. […] The compounds were diluted in a volume of 100 μL of the medium. […] Cell growth was determined by measuring the optical density (OD) at 540/630 nm, with a Multiscan EX ELISA reader (Thermo Labsystems, Cheshire, WA, USA). […]

[5] = tested on: COLO 205 doxorubicin-sensitive colonic adenocarcinoma cells; test: Antiproliferative MTT assay, COLO 205; assay type: cell-based, human; conditions: for IC50: MTT, 72 h, four parallel measurements, read-out: IC50 (µM) ± SD COLO 205; for SI MRC-5/COLO 205: selectivity index: IC50 in non-tumour cells / IC50 in cancer cells
Experimental: as §1, §2

[6] = Stability of the hemiacetal, 1H NMR measured again; assay type: physicochemical; conditions: 1H NMR measured again one day later; two sets of signals approx. 1:0.6
From the text: Compound 2 (ensifolin B) has the molecular formula C25H24O4 compatible with the fragment ion in the HRESIMS at m/z 369.1497 [M − H2O − H]^− (calcd for 369.1491). […] The structure of the phenanthrene skeleton was assembled through 2D NMR analysis. It was concluded that the phenanthrene core of compound 2 is identical to sylvaticin A, a 9,10-dihydrophenanthrene recently described from Luzula sylvatica. However, NMR characteristics of the H2-11 oxymethylene in 2 are different compared to those of sylvaticin A, including its […] shifted carbon (δC 66.2 vs. 60.2) and magnetically inequivalent protons (δH 5.19 and 5.09, vs. δH 5.01, 2H, s). […] Similar to compound 1, ensifolin B (2) also has an asymmetric carbon atom (C-1′). The specific rotation value [α ]D25 of the compound was +2 (c 0.1, MeOH). When compound 2 was injected onto a chiral HPLC column, it eluted with two well-separated peaks with a peak ratio area of 1:1. […] Intermolecular hemiacetals are intrinsically unstable with respect to their parent alcohols and aldehydes. […] Considering that sylvaticin A and 4-hydroxybenzaldehyde, the minor compounds of the mixture were also isolated from other fractions (compound 16 and 18, respectively), it is unclear whether these phytochemicals originally presented in the harvested plant material or whether they are just by-products of the decomposition of compound 2.

SMILES | Interaction (HeLa cells) | CI (combination index) (HeLa cells) | IC50 [1] [µM] | SI MRC-5/COLO 320 [1] | IC50 [2] [µM] | SI MRC-5/HeLa [2] | IC50 [3] [µM] | IC50 [4] [µM] | activity relative to positive control cisplatin ([5]; COLO 205 cells) | IC50 ([5]; Homo sapiens, COLO 205, 72 h) [µM] | IC50 [5] [µM] | stability of initially pure compound [6] | SI MRC-5/COLO 205 [5]
Cc1cc(O)c2c(c1C(O)COc1cc(-c3cc(=O)c4c(O)cc(O)cc4o3)ccc1O)CCc1c-2ccc(O)c1C (stereo not drawn) [Compound 1, Ensifolin A] | strong synergism (0.1 < CI < 0.3: strong synergism) | 0.272 | 12.71 ± 0.05 | 1.52 | 8.25 ± 0.51 | 2.34 | 19.3 ± 0.54 | 3.9 to 12.7 | more than ten-fold | 3.9 | 3.86 ± 0.08 |  | 
C=Cc1cc(C)cc2c1-c1ccc(O)c(COC(O)c3ccc(O)cc3)c1CC2 (stereo not drawn) [Compound 2, Ensifolin B] | synergism (0.3 < CI < 0.7: synergism) | 0.584 | 37.24 ± 0.11 | 1.39 | 33.49 ± 0.29 | 1.55 | 51.87 ± 0.14 |  |  | 45.6 ± 0.5 |  | showed signs of decomposition | 1.14
C=Cc1cc(C)cc2c1-c1ccc(O)c(C)c1C(O)C2 (stereo not drawn) [Compound 3, 2,10-dihydroxy-1,7-dimethyl-5-vinyl-9,10-dihydrophenanthrene] | synergism (0.3 < CI < 0.7: synergism) | 0.580 | > 100 |  | > 100 |  | > 100 |  |  | > 100 |  |  | 
C=Cc1cc(C)cc2c1-c1ccc(O)c(COC)c1CC2 [Compound 4, Ensifolin D] | synergism (0.3 < CI < 0.7: synergism) | 0.643 | 61.6 ± 9.95 | >1.62 | 19.4 ± 0.33 | >5.15 | > 100 |  |  | 65.6 ± 0.78 |  |  | >1.52
C=Cc1c(C)cc(O)c2c1CCc1c-2ccc(O)c1C [Compound 5, 2,5-dihydroxy-1,7-dimethyl-8-vinyl-9,10-dihydrophenanthrene] | very strong synergism (CI < 0.1: very strong synergism) |  | 25.2 ± 0.92 | 1.76 | 27.5 ± 1.19 | 1.61 | 44.3 ± 0.61 | 25.2 to 31.2 |  | 31.2 ± 0.66 |  |  | 1.42
C=Cc1c(CO)cc(O)c2c1CCc1c-2ccc(O)c1C [Compound 6, Ensifolin F] | strong synergism (0.1 < CI < 0.3: strong synergism) | 0.159 | 93.71 ± 0.14 | >1.07 | 74.3 ± 2.98 | >1.35 | > 100 |  |  | > 100 |  |  | 
CC(=O)c1c(C)cc(O)c2c1CCc1c-2ccc(O)c1C [Compound 7, Ensifolin G] | synergism (0.3 < CI < 0.7: synergism) | 0.568 | > 100 |  | 75.6 ± 0.94 | >1.32 | > 100 |  |  | > 100 |  |  | 
C=Cc1c(C)cc(O)c2c1CCc1c-2cc(-c2cc3c(c(C)c2O)CCc2c(C=C)c(C)cc(O)c2-3)c(O)c1C [Compound 10, Ensifolin J] | synergism (0.3 < CI < 0.7: synergism) | 0.454 | 42.8 ± 1.28 | 1.35 | 33.5 ± 1.89 | 1.72 | 57.8 ± 1.32 |  |  | 44.5 ± 1.22 |  |  | 1.30
C=Cc1c(C)cc(O)c2c1CCc1c-2cc(-c2c(O)c(C)c(C=C)c3ccc4c(C)c(O)ccc4c23)c(O)c1C [Compound 11, Ensifolin K] | strong synergism (0.1 < CI < 0.3: strong synergism) | 0.112 | 37.8 ± 1.05 | 0.88 | 29.5 ± 0.31 | 1.12 | 33.16 ± 0.05 |  |  | 31.4 ± 0.72 |  |  | 1.06
